Measurements from US20050096327A1, “Novel norepinephrine reuptake inhibitors for the treatment of central nervous system disorders” (priority 2003, published 2005).

Each compound was assayed against T1, human norepinephrine transporter (Homo sapiens, UniProt P23975) (assay: hNET receptor binding ([125I]-RTI-55, membranes of transfected HEK-293 cells)). Settings: 50 pM [125I]-RTI-55, 90 min room temperature; IC50 converted by Cheng-Prusoff.
T1 construct: host or cells: HEK-293
Protocol: (§1) Cell pastes of HEK-293 cells transfected with the human norepinephrine transporter were supplied by the Pfizer Ann Arbor Protein Expression and Production group. Pellets were resuspended in 400 to 700 ml of Krebs-HEPES assay buffer (25 mM HEPES, 122 mM NaCl, 3 mM KCl, 1.2 mM MgSO4, 1.3 mM CaCl2, and 11 mM glucose, pH 7.4) with a Polytron homogenizer at setting 7 for 30 sec. Aliquots of membranes (5 mg/ml protein) were stored in liquid nitrogen until used.
The binding assay was set up in Beckman deep-well polypropylene plates with a total volume of 250 μl containing: drug (10^−5M to 10^−12M), cell membranes, and 50 pM [^125I]-RTI-55 (Perkin Elmer, NEX-272; specific activity 2200 Ci/mmol). The reaction was incubated by gentle agitation for 90 min at room temperature and was terminated by filtration through Whatman GF/C filter plates using a Brandel 96-well plate harvester. Scintillation fluid (100 μl) was added to each well, and bound [^125I]-RTI-55 was determined using a Wallac Trilux Beta Plate Counter. Test compounds were run in duplicate, and specific binding was defined as the difference between binding in the presence and absence of 10 μM desipramine.
Excel and GraphPad Prism software were used for data calculation and analysis. IC50 values were converted to Ki values using the Cheng-Prusoff equation. The Ki values for the hNET are reported below in Table 1.

T1 sequence (P23975 whole entry): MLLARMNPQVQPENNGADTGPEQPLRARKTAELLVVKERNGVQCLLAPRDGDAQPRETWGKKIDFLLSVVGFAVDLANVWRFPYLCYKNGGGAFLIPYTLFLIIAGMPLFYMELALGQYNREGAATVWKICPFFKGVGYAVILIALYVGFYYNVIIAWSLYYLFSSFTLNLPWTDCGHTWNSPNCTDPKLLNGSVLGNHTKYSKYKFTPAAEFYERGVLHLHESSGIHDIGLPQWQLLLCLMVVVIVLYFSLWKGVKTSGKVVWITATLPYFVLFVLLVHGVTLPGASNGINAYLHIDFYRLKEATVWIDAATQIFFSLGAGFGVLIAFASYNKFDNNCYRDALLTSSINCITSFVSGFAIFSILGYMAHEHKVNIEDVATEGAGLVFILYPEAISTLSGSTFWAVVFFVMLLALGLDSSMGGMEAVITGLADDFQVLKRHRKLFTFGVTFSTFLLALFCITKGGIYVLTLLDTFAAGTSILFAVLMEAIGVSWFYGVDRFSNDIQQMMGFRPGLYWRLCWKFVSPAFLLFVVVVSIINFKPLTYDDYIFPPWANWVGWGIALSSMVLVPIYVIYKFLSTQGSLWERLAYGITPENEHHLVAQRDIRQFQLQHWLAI

Which Ki does the source give for C[C@H]1CNCCN1c1nc(-c2ccc(F)cc2F)c2ccccc2n1 [Example 82, S-4-(2,4-Difluoro-phenyl)-2-(2-methyl-piperazin-1-yl)-quinazoline] here?
Its Ki is 19.4 nM.

For CN1CCN(c2nc(-c3c(F)cccc3F)c3ccc(F)cc3n2)CC1 [Example 83, 4-(2,6-Difluoro-phenyl)-7-fluoro-2-(4-methyl-piperazin-1-yl)-quinazoline], which Ki is on record?
The Ki was 37.6 nM.

Fc1ccc2c(-c3c(F)cccc3F)nc(N[C@@H]3CCNC3)nc2c1 [Example 84, R-[4-(2,6-Difluoro-phenyl)-7-fluoro-quinazolin-2-yl]-pyrrolidin-3-yl-amine] was tested. Which Ki did it give?
The Ki was 49.8 nM.

With C[C@H]1CNCCN1c1nc(-c2c(F)cccc2Cl)c2ccccc2n1 [Example 85, S-4-(2-Chloro-6-fluoro-phenyl)-2-(2-methyl-piperazin-1-yl)-quinazoline] as the compound, how does the Ki read?
The Ki was 26.3 nM.

For C[C@@H]1CNCCN1c1nc(-c2c(F)cccc2F)c2ccccc2n1 [Example 86, R-4-(2,6-Difluoro-phenyl)-2-(2-methyl-piperazin-1-yl)-quinazoline], which Ki is on record?
Its Ki is 14.4 nM.

For C[C@@H]1CNCCN1c1nc(-c2cccc(F)c2F)c2ccccc2n1 [Example 87, R-4-(2,3-Difluoro-phenyl)-2-(2-methyl-piperazin-1-yl)-quinazoline], which Ki is on record?
Its Ki is 20 nM.

Which Ki does the source give for C[C@H]1CNCCN1c1nc(-c2cccc(F)c2F)c2ccccc2n1 [Example 88, S-4-(2,3-Difluoro-phenyl)-2-(2-methyl-piperazin-1-yl)-quinazoline] here?
The Ki was 18.9 nM.

With Clc1ccc2c(-c3ccccc3)nc(N3CCNCC3)nc2c1 [Example 89, 7-Chloro-4-phenyl-2-piperazin-1-yl-quinazoline] as the compound, how does the Ki read?
Its Ki is 49 nM.

With COc1cccc(-c2nc(N3CCNCC3)nc3ccccc23)c1 [Example 90, 4-(3-methoxy-phenyl)-2-piperazin-1-yl-quinazoline] as the compound, how does the Ki read?
Its Ki is 14.6 nM.

With Brc1ccc2nc(N3CCNCC3)nc(-c3ccccc3)c2c1 [Example 91, 6-Bromo-4-phenyl-2-piperazin-1-yl-quinazoline] as the compound, how does the Ki read?
Its Ki is 211 nM.

With Fc1ccc2nc(N3CCNCC3)nc(-c3ccccc3)c2c1 [Example 92, 6-Fluoro-4-phenyl-2-piperazin-1-yl-quinazoline] as the compound, how does the Ki read?
Its Ki is 33.8 nM.

How did the Ki turn out when N[C@@H]1CCN(c2nc(-c3c(F)cccc3F)c3ccc(F)cc3n2)C1 [Example 93, R-1-[4-(2,6-Difluoro-phenyl)-7-fluoro-quinazolin-2-yl]-pyrrolidin-3-ylamine] was run?
Its Ki is 21.9 nM.

With N[C@H]1CCN(c2nc(-c3c(F)cccc3F)c3ccc(F)cc3n2)C1 [Example 94, S-1-[4-(2,6-Difluoro-phenyl)-7-fluoro-quinazolin-2-yl]-pyrrolidin-3-ylamine] as the compound, how does the Ki read?
Its Ki is 23.7 nM.

N[C@@H]1CCN(c2nc(-c3c(F)cccc3F)c3ccccc3n2)C1 [Example 95, R-1-[4-(2,6-Difluoro-phenyl)-quinazolin-2-yl]-pyrrolidin-3-ylamine] was tested. Which Ki did it give?
The Ki was 76.9 nM.

Which Ki does the source give for N[C@H]1CCN(c2nc(-c3c(F)cccc3F)c3ccccc3n2)C1 [Example 96, S-1-[4-(2,6-Difluoro-phenyl)-quinazolin-2-yl]-pyrrolidin-3-ylamine] here?
The Ki was 12.2 nM.

How did the Ki turn out when Fc1ccc2c(-c3ccccc3)nc(N3CCNCC3)nc2c1 [Example 97, 7-Fluoro-4-phenyl-2-piperazin-1-yl-quinazoline] was run?
Its Ki is 13.8 nM.

How did the Ki turn out when Fc1ccc2c(-c3c(F)cccc3F)nc(N3CCNCC3)nc2c1 [Example 98, 4-(2,6-Difluoro-phenyl)-7-fluoro-2-piperazin-1-yl-quinazoline] was run?
The Ki was 20 nM.

Fc1cccc(F)c1-c1nc(N[C@@H]2CCNC2)nc2ccccc12 [Example 99, R-[4-(2,6-Difluoro-phenyl)-quinazolin-2-yl]-pyrrolidin-3-yl-amine] was tested. Which Ki did it give?
The Ki was 45.7 nM.

Each compound was assayed against T2, human serotonin transporter (Homo sapiens, UniProt P31645) (assay: hSERT receptor binding ([125I]-RTI-55, membranes of transfected HEK-293 cells)). Settings: 50 pM [125I]-RTI-55, 90 min room temperature; IC50 converted by Cheng-Prusoff.
T2 construct: host or cells: HEK-293
T2 sequence (P31645 whole entry): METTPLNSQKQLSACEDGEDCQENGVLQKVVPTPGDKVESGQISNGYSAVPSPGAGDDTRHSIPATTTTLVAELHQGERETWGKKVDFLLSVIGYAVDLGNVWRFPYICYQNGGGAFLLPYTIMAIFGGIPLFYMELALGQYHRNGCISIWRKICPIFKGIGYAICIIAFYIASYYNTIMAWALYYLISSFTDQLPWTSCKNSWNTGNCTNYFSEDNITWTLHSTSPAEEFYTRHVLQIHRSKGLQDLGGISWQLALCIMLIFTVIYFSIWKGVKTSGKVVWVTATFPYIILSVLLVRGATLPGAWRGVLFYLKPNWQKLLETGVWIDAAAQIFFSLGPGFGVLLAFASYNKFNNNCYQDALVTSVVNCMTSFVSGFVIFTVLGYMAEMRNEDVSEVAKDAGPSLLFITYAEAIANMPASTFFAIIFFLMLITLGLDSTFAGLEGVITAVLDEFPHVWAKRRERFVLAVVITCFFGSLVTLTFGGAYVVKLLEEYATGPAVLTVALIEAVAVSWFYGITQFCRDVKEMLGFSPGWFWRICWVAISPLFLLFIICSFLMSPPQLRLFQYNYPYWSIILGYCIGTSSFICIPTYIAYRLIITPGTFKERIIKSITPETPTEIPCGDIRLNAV
Protocol: as §1, with “serotonin” for “norepinephrine”, “Group.” for “group.”, “mL” for “ml”, “Setting” for “setting”, “seconds.” for “sec.”, “(˜2.5 mg/mL” for “(5 mg/ml”
Assays were set up in FlashPlates pre-coated with 0.1% PEI in a total volume of 250 μL containing: drug (10^−5M to 10^−12M), cell membranes, and 50 pM [^125I]-RTI-55 (Perkin Elmer, NEX-272; specific activity 2200 Ci/mmol). The reaction was incubated and gently agitated for 90 minutes at room temperature, and terminated by removal of assay volume. Plates were covered, and bound [^125I]-RTI-55 was determined using a Wallac Trilux Beta Plate Counter. Test compounds were run in duplicate, and specific binding was defined as the difference between binding in the presence and absence of 10 μM citalopram.
Excel and GraphPad Prism software were used for data calculation and analysis. IC50 values were converted to Ki values using the Cheng-Prusoff equation. The Ki values for the hSERT are reported below in Table 1.

How did the Ki turn out when C[C@H]1CNCCN1c1nc(-c2ccc(F)cc2F)c2ccccc2n1 [Example 82, S-4-(2,4-Difluoro-phenyl)-2-(2-methyl-piperazin-1-yl)-quinazoline] was run?
The Ki was 64.1 nM.

For CN1CCN(c2nc(-c3c(F)cccc3F)c3ccc(F)cc3n2)CC1 [Example 83, 4-(2,6-Difluoro-phenyl)-7-fluoro-2-(4-methyl-piperazin-1-yl)-quinazoline], which Ki is on record?
The Ki was 314 nM.

Fc1ccc2c(-c3c(F)cccc3F)nc(N[C@@H]3CCNC3)nc2c1 [Example 84, R-[4-(2,6-Difluoro-phenyl)-7-fluoro-quinazolin-2-yl]-pyrrolidin-3-yl-amine] was tested. Which Ki did it give?
The Ki was 653 nM.

Which Ki does the source give for C[C@H]1CNCCN1c1nc(-c2c(F)cccc2Cl)c2ccccc2n1 [Example 85, S-4-(2-Chloro-6-fluoro-phenyl)-2-(2-methyl-piperazin-1-yl)-quinazoline] here?
The Ki was 265 nM.

Which Ki does the source give for C[C@@H]1CNCCN1c1nc(-c2c(F)cccc2F)c2ccccc2n1 [Example 86, R-4-(2,6-Difluoro-phenyl)-2-(2-methyl-piperazin-1-yl)-quinazoline] here?
Its Ki is 88.6 nM.

Which Ki does the source give for C[C@@H]1CNCCN1c1nc(-c2cccc(F)c2F)c2ccccc2n1 [Example 87, R-4-(2,3-Difluoro-phenyl)-2-(2-methyl-piperazin-1-yl)-quinazoline] here?
Its Ki is 99.1 nM.

Which Ki does the source give for C[C@H]1CNCCN1c1nc(-c2cccc(F)c2F)c2ccccc2n1 [Example 88, S-4-(2,3-Difluoro-phenyl)-2-(2-methyl-piperazin-1-yl)-quinazoline] here?
The Ki was 69.3 nM.

Which Ki does the source give for Clc1ccc2c(-c3ccccc3)nc(N3CCNCC3)nc2c1 [Example 89, 7-Chloro-4-phenyl-2-piperazin-1-yl-quinazoline] here?
Its Ki is 110 nM.

COc1cccc(-c2nc(N3CCNCC3)nc3ccccc23)c1 [Example 90, 4-(3-methoxy-phenyl)-2-piperazin-1-yl-quinazoline] was tested. Which Ki did it give?
The Ki was 152 nM.

How did the Ki turn out when Brc1ccc2nc(N3CCNCC3)nc(-c3ccccc3)c2c1 [Example 91, 6-Bromo-4-phenyl-2-piperazin-1-yl-quinazoline] was run?
The Ki was 31.4 nM.

How did the Ki turn out when Fc1ccc2nc(N3CCNCC3)nc(-c3ccccc3)c2c1 [Example 92, 6-Fluoro-4-phenyl-2-piperazin-1-yl-quinazoline] was run?
Its Ki is 53 nM.

N[C@@H]1CCN(c2nc(-c3c(F)cccc3F)c3ccc(F)cc3n2)C1 [Example 93, R-1-[4-(2,6-Difluoro-phenyl)-7-fluoro-quinazolin-2-yl]-pyrrolidin-3-ylamine] was tested. Which Ki did it give?
Its Ki is 50.6 nM.

For N[C@H]1CCN(c2nc(-c3c(F)cccc3F)c3ccc(F)cc3n2)C1 [Example 94, S-1-[4-(2,6-Difluoro-phenyl)-7-fluoro-quinazolin-2-yl]-pyrrolidin-3-ylamine], which Ki is on record?
Its Ki is 15.7 nM.

With N[C@@H]1CCN(c2nc(-c3c(F)cccc3F)c3ccccc3n2)C1 [Example 95, R-1-[4-(2,6-Difluoro-phenyl)-quinazolin-2-yl]-pyrrolidin-3-ylamine] as the compound, how does the Ki read?
Its Ki is 322 nM.

N[C@H]1CCN(c2nc(-c3c(F)cccc3F)c3ccccc3n2)C1 [Example 96, S-1-[4-(2,6-Difluoro-phenyl)-quinazolin-2-yl]-pyrrolidin-3-ylamine] was tested. Which Ki did it give?
Its Ki is 70.8 nM.

For Fc1ccc2c(-c3ccccc3)nc(N3CCNCC3)nc2c1 [Example 97, 7-Fluoro-4-phenyl-2-piperazin-1-yl-quinazoline], which Ki is on record?
The Ki was 49.6 nM.

How did the Ki turn out when Fc1ccc2c(-c3c(F)cccc3F)nc(N3CCNCC3)nc2c1 [Example 98, 4-(2,6-Difluoro-phenyl)-7-fluoro-2-piperazin-1-yl-quinazoline] was run?
The Ki was 32 nM.

For Fc1cccc(F)c1-c1nc(N[C@@H]2CCNC2)nc2ccccc12 [Example 99, R-[4-(2,6-Difluoro-phenyl)-quinazolin-2-yl]-pyrrolidin-3-yl-amine], which Ki is on record?
Its Ki is 2900 nM.
